Active and inactive are the calls of the source.
Legend:
Assay type in all cases: functional
[1] = molecular target: 5'-AMP-activated protein kinase catalytic subunit alpha-1 (Homo sapiens, UniProt Q13131)
[2] = molecular target: Serine/threonine-protein kinase PLK4 (Homo sapiens, UniProt O00444);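 note: PLK4 measured as one member of a kinome-wide kinase profiling panel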
[3] = molecular target: Serine/threonine-protein kinase D2 (Homo sapiens, UniProt Q9BZL6);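 note: measured against PRKD2 as one member of a kinome-wide kinase profiling panel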
[4] = molecular target: Calcium/calmodulin-dependent protein kinase type II subunit gamma (Homo sapiens, UniProt Q13555)
Chain of Calcium/calmodulin-dependent protein kinase type II subunit gamma (Q13555 whole entry): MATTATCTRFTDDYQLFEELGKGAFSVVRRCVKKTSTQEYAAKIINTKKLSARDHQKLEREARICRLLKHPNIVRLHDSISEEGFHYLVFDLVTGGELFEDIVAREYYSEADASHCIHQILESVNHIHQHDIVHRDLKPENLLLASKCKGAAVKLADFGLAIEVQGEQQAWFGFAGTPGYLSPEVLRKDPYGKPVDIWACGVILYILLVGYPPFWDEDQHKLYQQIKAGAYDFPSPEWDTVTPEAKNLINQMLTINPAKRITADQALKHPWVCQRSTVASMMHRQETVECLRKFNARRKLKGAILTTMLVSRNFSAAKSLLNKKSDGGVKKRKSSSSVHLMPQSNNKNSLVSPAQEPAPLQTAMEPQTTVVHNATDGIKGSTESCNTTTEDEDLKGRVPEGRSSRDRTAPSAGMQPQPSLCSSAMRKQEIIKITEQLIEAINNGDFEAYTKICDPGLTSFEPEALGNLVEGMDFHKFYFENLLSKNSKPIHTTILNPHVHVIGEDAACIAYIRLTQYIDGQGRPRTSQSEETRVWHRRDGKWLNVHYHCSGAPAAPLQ

[5] = molecular target: MAP/microtubule affinity-regulating kinase 4 (Homo sapiens, UniProt Q96L34); test: Navigating the Kinome. Panel member name: MARK4
[6] = molecular target: Serine/threonine-protein kinase D3 (Homo sapiens, UniProt O94806);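 note: determined within a kinase panel screen, with PRKCN as the panel member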
[7] = molecular target: Serine/threonine-protein kinase Chk2 (Homo sapiens, UniProt O96017);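 note: CHEK2 entry within a kinome-wide screening panel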
Activin receptor type-1 = Activin receptor type-1 (Homo sapiens, UniProt Q04771); test: Navigating the Kinome. Panel member name: ACVR1
SRSF protein kinase 1 = SRSF protein kinase 1 (Homo sapiens, UniProt Q96SB4);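 note: measured as one member of a kinome-wide kinase profiling panel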
[8] = molecular target: Mitogen-activated protein kinase 8 (Homo sapiens, UniProt P45983);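 note: value comes from one member of a kinome-wide kinase profiling panel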
[9] = molecular target: Serine/threonine-protein kinase pim-1 (Homo sapiens, UniProt P11309)
Aurora kinase A = molecular target: T1, Aurora kinase A (Homo sapiens, UniProt O14965);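 note: value from the Navigating the Kinome kinase panel profiling, panel entry STK6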
T1 sequence (O14965 whole entry): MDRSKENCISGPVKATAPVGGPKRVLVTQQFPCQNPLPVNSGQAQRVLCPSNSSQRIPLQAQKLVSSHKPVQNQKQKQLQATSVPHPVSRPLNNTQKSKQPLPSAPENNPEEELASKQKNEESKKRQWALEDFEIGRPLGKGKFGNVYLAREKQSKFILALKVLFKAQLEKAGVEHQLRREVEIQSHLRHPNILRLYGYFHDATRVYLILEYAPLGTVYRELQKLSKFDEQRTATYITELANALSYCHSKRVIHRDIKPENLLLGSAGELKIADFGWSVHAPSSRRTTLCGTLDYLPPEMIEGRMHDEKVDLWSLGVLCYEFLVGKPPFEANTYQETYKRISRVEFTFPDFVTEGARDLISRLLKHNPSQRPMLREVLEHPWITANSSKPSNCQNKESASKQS

[10] = molecular target: Serine/threonine-protein kinase PAK 4 (Homo sapiens, UniProt O96013);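 note: value obtained within a kinome profiling panel in which PAK4 was one of the panel members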
[11] = molecular target: Serine/threonine-protein kinase N2 (Homo sapiens, UniProt Q16513)
Chain of Serine/threonine-protein kinase N2 (Q16513 whole entry): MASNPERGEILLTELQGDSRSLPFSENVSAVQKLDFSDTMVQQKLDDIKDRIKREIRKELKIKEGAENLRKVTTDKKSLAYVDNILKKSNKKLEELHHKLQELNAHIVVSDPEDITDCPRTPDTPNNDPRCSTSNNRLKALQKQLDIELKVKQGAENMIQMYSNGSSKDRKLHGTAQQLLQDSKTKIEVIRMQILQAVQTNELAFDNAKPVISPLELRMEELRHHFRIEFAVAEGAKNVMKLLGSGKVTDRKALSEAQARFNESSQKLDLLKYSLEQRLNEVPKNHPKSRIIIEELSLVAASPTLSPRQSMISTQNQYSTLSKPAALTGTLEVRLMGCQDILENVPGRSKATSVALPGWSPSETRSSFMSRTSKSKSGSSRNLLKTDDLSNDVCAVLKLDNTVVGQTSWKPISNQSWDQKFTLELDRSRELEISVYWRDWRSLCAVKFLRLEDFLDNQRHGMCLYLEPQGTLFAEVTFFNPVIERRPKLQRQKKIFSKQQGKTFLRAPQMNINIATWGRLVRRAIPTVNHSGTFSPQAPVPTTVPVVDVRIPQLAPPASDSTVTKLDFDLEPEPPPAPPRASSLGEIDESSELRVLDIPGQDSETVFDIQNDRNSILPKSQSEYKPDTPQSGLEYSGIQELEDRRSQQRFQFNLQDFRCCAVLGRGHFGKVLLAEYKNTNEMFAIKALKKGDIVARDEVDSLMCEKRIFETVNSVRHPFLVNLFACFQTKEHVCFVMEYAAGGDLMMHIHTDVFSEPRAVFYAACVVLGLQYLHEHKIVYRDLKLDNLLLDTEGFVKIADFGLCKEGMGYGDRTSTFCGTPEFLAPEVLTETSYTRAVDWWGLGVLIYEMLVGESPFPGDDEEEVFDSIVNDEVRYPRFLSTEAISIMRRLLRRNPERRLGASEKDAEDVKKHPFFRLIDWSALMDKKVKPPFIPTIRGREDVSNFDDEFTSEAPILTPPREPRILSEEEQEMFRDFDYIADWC

[12] = molecular target: Serine/threonine-protein kinase TAO1 (Homo sapiens, UniProt Q7L7X3)
[13] = molecular target: Testis-specific serine/threonine-protein kinase 1 (Homo sapiens, UniProt Q9BXA7)
[14] = molecular target: Homeodomain-interacting protein kinase 2 (Homo sapiens, UniProt Q9H2X6);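 note: measured within a kinome-wide kinase profiling panel, HIPK2 being one panel member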
[15] = molecular target: MAP/microtubule affinity-regulating kinase 3 (Homo sapiens, UniProt P27448);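 note: MARK3 affinity measured as one member of a kinome panel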
[16] = molecular target: Protein kinase C gamma type (Homo sapiens, UniProt P05129)
[17] = molecular target: Dual specificity tyrosine-phosphorylation-regulated kinase 3 (Homo sapiens, UniProt O43781);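 note: measured as one member of a broad kinase panel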
[18] = molecular target: Platelet-derived growth factor receptor beta (Homo sapiens, UniProt P09619);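 note: value comes from a kinome panel, with PDGFRB tested as one panel member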
[19] = molecular target: MAP kinase-activated protein kinase 3 (Homo sapiens, UniProt Q16644);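 note: value comes from a kinome-wide profiling panel in which MAPKAPK3 is one of the panel members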
[20] = molecular target: Casein kinase I isoform delta (Homo sapiens, UniProt P48730);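 note: measured as one member (CSNK1D) of a kinome panel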
[21] = molecular target: MAP kinase-interacting serine/threonine-protein kinase 2 (Homo sapiens, UniProt Q9HBH9)
[22] = molecular target: Vascular endothelial growth factor receptor 2 (Homo sapiens, UniProt P35968)
[23] = molecular target: G protein-coupled receptor kinase 5 (Homo sapiens, UniProt P34947); test: Navigating the Kinome. Panel member name: GPRK5
Chain of G protein-coupled receptor kinase 5 (P34947 whole entry): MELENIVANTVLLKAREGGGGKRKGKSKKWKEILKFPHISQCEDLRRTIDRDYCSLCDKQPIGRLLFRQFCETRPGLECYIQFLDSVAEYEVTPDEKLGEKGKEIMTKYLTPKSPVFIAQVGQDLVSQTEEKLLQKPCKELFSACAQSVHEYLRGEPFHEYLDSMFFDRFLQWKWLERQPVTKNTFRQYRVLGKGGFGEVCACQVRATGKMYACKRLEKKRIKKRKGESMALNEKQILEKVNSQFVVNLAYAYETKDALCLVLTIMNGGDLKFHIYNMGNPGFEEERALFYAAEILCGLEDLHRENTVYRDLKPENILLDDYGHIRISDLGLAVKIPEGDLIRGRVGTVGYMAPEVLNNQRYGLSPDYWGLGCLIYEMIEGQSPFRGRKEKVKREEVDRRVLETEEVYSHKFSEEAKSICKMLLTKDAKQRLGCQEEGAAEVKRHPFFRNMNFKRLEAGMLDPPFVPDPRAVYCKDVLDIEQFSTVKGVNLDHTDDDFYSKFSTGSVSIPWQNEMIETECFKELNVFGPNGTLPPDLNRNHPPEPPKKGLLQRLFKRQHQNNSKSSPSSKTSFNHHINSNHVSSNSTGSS

Ephrin type-A receptor 2 = Ephrin type-A receptor 2 (Homo sapiens, UniProt P29317);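 note: EPHA2 tested as one member of a kinome-wide kinase panel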
[24] = molecular target: Mitogen-activated protein kinase 1 (Homo sapiens, UniProt P28482)
[25] = molecular target: cAMP-dependent protein kinase catalytic subunit PRKX (Homo sapiens, UniProt P51817)
Focal adhesion kinase 1 = Focal adhesion kinase 1 (Homo sapiens, UniProt Q05397);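 note: measured as one member of a kinome panel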
[26] = molecular target: Maternal embryonic leucine zipper kinase (Homo sapiens, UniProt Q14680)
Chain of Maternal embryonic leucine zipper kinase (Q14680 whole entry): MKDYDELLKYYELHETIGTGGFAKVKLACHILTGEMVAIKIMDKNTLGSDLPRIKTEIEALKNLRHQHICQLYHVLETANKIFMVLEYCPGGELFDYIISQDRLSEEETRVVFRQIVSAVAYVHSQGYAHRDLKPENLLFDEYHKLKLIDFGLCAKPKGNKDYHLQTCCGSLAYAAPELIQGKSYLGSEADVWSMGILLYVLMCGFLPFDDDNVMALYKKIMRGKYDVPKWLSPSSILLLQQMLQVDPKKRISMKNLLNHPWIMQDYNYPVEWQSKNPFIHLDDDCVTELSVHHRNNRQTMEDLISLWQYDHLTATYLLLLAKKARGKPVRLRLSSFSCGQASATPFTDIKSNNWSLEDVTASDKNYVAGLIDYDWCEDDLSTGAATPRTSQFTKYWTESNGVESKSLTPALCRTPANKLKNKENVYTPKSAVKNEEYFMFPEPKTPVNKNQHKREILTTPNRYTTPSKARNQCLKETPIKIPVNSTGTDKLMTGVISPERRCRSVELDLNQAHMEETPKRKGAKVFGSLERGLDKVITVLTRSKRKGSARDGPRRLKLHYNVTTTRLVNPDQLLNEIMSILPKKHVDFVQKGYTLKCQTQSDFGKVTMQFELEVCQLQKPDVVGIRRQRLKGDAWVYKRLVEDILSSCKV

[27] = molecular target: Interleukin-1 receptor-associated kinase 4 (Homo sapiens, UniProt Q9NWZ3)
[28] = molecular target: Vascular endothelial growth factor receptor 3 (Homo sapiens, UniProt P35916);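 note: value from a kinome-wide profiling panel, with FLT4 as the panel member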
[29] = molecular target: Tyrosine-protein kinase Fyn (Homo sapiens, UniProt P06241)
[30] = molecular target: Serine/threonine-protein kinase DCLK1 (Homo sapiens, UniProt O15075);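 note: affinity for DCLK1 (listed as DCAMKL1) measured as one member of a kinome-wide kinase profiling panel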
Chain of Serine/threonine-protein kinase DCLK1 (O15075 whole entry): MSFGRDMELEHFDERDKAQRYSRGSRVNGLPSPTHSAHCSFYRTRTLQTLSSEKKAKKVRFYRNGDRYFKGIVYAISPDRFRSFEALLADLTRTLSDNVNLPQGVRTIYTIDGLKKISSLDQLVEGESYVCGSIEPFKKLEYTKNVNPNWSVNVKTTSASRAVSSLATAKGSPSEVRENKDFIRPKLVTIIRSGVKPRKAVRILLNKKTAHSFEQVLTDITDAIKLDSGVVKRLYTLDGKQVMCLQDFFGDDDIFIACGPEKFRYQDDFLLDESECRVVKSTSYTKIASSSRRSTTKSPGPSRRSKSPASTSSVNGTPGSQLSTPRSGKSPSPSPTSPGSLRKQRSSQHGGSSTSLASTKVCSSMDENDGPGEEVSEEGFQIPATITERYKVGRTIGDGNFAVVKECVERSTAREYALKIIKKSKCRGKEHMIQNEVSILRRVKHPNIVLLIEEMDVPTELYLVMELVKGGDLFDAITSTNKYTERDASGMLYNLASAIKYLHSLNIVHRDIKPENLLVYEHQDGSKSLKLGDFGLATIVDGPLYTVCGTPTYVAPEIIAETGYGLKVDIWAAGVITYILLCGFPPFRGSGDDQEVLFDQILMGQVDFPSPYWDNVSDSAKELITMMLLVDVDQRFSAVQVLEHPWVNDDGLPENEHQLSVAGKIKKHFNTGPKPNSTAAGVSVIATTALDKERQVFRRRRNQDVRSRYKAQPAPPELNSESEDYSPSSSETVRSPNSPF

[31] = molecular target: STE20-like serine/threonine-protein kinase (Homo sapiens, UniProt Q9H2G2)
[32] = molecular target: BDNF/NT-3 growth factors receptor (Homo sapiens, UniProt Q16620);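 note: NTRK2 measured as one member of a broad kinome-wide kinase profiling panel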
Chain of BDNF/NT-3 growth factors receptor (Q16620 whole entry): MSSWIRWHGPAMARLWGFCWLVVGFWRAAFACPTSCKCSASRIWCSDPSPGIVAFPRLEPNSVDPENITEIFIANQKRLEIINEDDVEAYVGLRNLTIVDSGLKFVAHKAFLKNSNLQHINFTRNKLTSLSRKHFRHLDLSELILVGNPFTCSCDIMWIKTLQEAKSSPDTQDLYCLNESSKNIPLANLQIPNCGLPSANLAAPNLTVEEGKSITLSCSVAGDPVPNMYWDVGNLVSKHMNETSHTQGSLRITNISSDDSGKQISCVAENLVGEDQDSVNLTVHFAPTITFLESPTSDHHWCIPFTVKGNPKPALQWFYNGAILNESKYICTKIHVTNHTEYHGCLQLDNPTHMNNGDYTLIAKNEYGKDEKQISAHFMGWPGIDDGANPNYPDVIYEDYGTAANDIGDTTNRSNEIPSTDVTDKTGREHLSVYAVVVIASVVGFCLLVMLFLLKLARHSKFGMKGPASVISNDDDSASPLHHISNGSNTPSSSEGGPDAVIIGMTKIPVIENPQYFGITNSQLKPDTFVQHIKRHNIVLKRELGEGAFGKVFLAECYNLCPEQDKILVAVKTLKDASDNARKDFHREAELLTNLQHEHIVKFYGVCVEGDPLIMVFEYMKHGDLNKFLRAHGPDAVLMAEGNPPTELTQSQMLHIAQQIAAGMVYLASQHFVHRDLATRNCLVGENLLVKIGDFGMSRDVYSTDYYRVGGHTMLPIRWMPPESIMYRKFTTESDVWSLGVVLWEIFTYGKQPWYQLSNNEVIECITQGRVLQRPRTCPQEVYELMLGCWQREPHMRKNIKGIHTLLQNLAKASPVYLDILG

[33] = molecular target: Dual specificity mitogen-activated protein kinase kinase 2 (Homo sapiens, UniProt P36507); test: Navigating the Kinome. Panel member name: MAP2K2
[34] = molecular target: Inhibitor of nuclear factor kappa-B kinase subunit epsilon (Homo sapiens, UniProt Q14164); test: Navigating the Kinome. Panel member name: IKBKE
Chain of Inhibitor of nuclear factor kappa-B kinase subunit epsilon (Q14164 whole entry): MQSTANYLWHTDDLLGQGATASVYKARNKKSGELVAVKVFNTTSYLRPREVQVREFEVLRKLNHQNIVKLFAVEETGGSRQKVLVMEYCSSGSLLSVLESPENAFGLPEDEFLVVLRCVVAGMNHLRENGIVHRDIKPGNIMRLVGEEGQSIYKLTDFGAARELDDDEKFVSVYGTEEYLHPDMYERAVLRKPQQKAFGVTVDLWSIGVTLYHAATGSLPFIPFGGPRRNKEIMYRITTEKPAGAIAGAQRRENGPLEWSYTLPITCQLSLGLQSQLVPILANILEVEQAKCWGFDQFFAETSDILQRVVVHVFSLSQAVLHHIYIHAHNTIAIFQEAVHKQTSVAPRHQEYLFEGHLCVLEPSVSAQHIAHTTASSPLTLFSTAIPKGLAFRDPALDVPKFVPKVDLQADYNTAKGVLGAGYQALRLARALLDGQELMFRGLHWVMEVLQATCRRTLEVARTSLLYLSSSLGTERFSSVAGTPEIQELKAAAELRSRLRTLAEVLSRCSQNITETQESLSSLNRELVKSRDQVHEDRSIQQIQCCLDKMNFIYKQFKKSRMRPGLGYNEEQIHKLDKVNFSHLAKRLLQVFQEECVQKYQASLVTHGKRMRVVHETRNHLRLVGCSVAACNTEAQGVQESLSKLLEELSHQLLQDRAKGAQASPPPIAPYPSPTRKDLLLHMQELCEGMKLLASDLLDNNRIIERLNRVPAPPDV

[35] = molecular target: Tyrosine-protein kinase FRK (Homo sapiens, UniProt P42685);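 note: FRK tested as one member of a kinome panel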

SMILES: NCCCn1cc(-c2cc(-c3cc4ccccc4s3)c3[nH]ncc3c2)c2nc(N)ncc21
- Ki [1]: 794 nM (active)
- Ki [2]: 63.1 nM (active)
- Ki [3]: 50.1 nM (active)
- Ki [4]: 501 nM (active)
- Ki [5]: 7.94 nM (active)
- Ki [6]: 398 nM (active)
- Ki [7]: 20 nM (active)
- Ki (Activin receptor type-1): > 3160 nM (inactive)
- Ki (SRSF protein kinase 1): 2000 nM (active)
- Ki [8]: > 2510 nM (inactive)
- Ki [9]: > 3160 nM (inactive)
- Ki (Aurora kinase A): > 1580 nM (inactive)
- Ki [10]: 2510 nM (active)
- Ki [11]: 316 nM (active)
- Ki [12]: > 5010 nM (inactive)
- Ki [13]: 251 nM (active)
- Ki [14]: 631 nM (active)
- Ki [15]: 63.1 nM (active)
- Ki [16]: 200 nM (active)
- Ki [17]: 100 nM (active)
- Ki [18]: > 2000 nM (inactive)
- Ki [19]: 1580 nM (active)
- Ki [20]: 126 nM (active)
- Ki [21]: 25.1 nM (active)
- Ki [22]: > 5010 nM (inactive)
- Ki [23]: > 3980 nM (inactive)
- Ki (Ephrin type-A receptor 2): > 3160 nM (inactive)
- Ki [24]: 5010 nM (active)
- Ki [25]: 3.16 nM (active)
- Ki (Focal adhesion kinase 1): > 5010 nM (inactive)
- Ki [26]: 251 nM (active)
- Ki [27]: 7940 nM (active)
- Ki [28]: 1000 nM (active)
- Ki [29]: > 3160 nM (inactive)
- Ki [30]: 2510 nM (active)
- Ki [31]: 126 nM (active)
- Ki [32]: > 3980 nM (inactive)
- Ki [33]: > 3980 nM (inactive)
- Ki [34]: > 3160 nM (inactive)
- Ki [35]: > 2510 nM (inactive)
